Patent publication US10688082B2, “Aminopyrazine compounds with A2A antagonist properties” (Merck Sharp & Dohme Corp., priority 2015, dated 2020)
pKi: −log10 of the molar value.

Molecular target: T1, human A2a receptor (Homo sapiens, UniProt P29274)
T1 construct: purchased Perkin-Elmer RBHA2AM400UA; host or cells: HEK293 cells (membranes)
Experiment: Competition binding assay using Scintillation Proximity technology (A2a activity)
Method: Binding affinities of compounds of the invention for the human A2a receptor were determined in a competition binding assay using Scintillation Proximity technology. Thus, […] from HEK293 cells expressing the human A2a receptor were incubated with a compound of the invention at concentrations ranging from 3000 nM to 0.15 nM in a reaction mixture containing also 0.5 nM of a tritiated form of 5-amino-7-[2-phenethyl]-2-(furan-2-yl)-7H-pyrazolo[4,3-e][1,2,4]triazolo[1,5-c]pyrimidine (the tritiated compound) and 100 μg of wheat germ agglutin-coated yttrium silicate SPA beads for one hour at room temperature with agitation. The beads were then allowed to settle to the bottom of the wells for 1 hr, after which the membrane-associated radioactivity was determined by scintillation counting in a TopCount microplate reader. Ki values were determined using the Cheng-Prusoff equation.
HEK293 cells expressing the human, rat, dog or monkey adenosine 2a receptor (Purchased from Perkin-Elmer # RBHA2AM400UA).
The Tritiated compound was prepared according to published methods.
Wheat germ agglutinin-coated yttrium silicate SPA beads (GE Healthcare # RPNQ0023). Dilute to 25 mg/ml in assay buffer.
Assay Buffer was prepared using Dulbecco's calcium and magnesium free phosphate buffered saline+10 mM MgCl2
Adenosine deaminase from calf intestine, 10 mg/2 ml (Roche #10 102 105 001).
A2a antagonist standard (9-chloro-1-(2-furanyl)-[1,2,4]triazolo1,5-c]quinazolin-5-amine from Tocris Bioscience)
Make eight 1:3 serial dilutions in 100% DMSO from a 3 mM compound stock
Transfer 50 nl of compound into a 384-well OptiPlate (Perkin Elmer).
Typically, final concentrations of compound used in the assay ranged from 3000 nM to 0.152 nM.
Dilute a solution of the Tritiated compound to 1.25 nM in assay buffer. This is a 2.5× solution. The final concentration in the assay is 0.5 nM. Calculate the concentration by counting two 5 μl aliquots.
Use 0.25 ug of membrane/well. Dilute membranes to 9.7 μg/ml in assay buffer. Treat with 20 ug/ml adenosine deaminase (ADA) for 15 minutes at room temperature to degrade endogenous adenosine.
Use 100 μg/well wheat germ agglutinin-coated yttrium silicate SPA beads.
Mix ADA-treated membranes and SPA beads together for 30 min prior to assay.
To the Perkin-Elmer Optiplate-384 containing the compound titration add 20 μl of 2.5× solution of the Tritiated compound and 30 μl of the membrane-bead mixture. Incubate for one hour at room temperature with agitation.
Include total binding (assay buffer+1% DMSO) and non-specific binding (CGS15943, 1 μM) wells.
Allow the beads to settle for one hour.
A curve fitting program (i.e., Prism, Activity Base, Chemcart) is used to determine the EC50. The Ki value is calculated using the Cheng-Prusoff equation. K i=EC50/(1+(radioligand concentration/Kd))

[1] = membranes from HEK293 cells expressing the human A2a receptor, 0.5 nM tritiated ligand, Cheng-Prusoff

T1 sequence (P29274 whole entry): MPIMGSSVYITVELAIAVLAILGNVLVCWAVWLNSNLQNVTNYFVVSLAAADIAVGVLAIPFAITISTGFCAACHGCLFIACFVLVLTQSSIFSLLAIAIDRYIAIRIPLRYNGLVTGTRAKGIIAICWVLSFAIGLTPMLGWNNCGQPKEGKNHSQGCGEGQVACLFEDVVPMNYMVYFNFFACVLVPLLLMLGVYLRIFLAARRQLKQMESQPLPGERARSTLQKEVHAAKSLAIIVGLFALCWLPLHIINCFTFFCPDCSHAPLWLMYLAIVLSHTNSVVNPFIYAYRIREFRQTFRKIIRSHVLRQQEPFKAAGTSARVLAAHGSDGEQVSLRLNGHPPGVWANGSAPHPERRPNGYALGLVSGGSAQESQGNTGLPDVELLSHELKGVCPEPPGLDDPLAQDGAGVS

pKi [1]	pKi (same protocol)	Compound
9.00		COc1cccc2c1nc(N)n1nc(Cc3ccccc3F)cc21 [Ex-30, 2-(2-fluorobenzyl)-7-methoxypyrazolo[1,5-c]quinazolin-5-amine]
7.82		COc1cccc2c1nc(N)n1nc(Cc3cnn(C)c3)cc21 [Ex-37, 7-methoxy-2-((1-methyl-1H-pyrazol-4-yl)methyl)pyrazolo[1,5-c]quinazolin-5-amine]
6.87		COc1cccc2c1nc(N)n1nc(Cc3cc(Cl)cc(C#N)c3)cc21 [Ex-62, 3-((5-amino-7-methoxypyrazolo[1,5-c]quinazolin-2-yl)methyl)-5-chlorobenzonitrile]
7.64		COc1cccc2c1nc(N)n1nc(-c3nnc(NCc4ccc(F)cc4F)o3)cc21 [Ex-103, 5-(5-amino-7-methoxypyrazolo[1,5-c]quinazolin-2-yl)-N-(2,4-difluorobenzyl)-1,3,4-oxadiazol-2-amine]
7.46		COc1cccc2c1nc(N)n1nc(Cc3cccc(Cl)c3)cc21 [Ex-49, 2-(3-chlorobenzyl)-7-methoxypyrazolo[1,5-c]quinazolin-5-amine]
8.05		COc1cccc2c1nc(N)n1nc(C(=O)N3CCC4(CCN(C(C)=O)C4)C3)cc21 (stereo not drawn) [Ex-87, 1-(7-(5-amino-7-methoxypyrazolo[1,5-c]quinazoline-2-carbonyl)-2,7-diazaspiro[4.4]nonan-2-yl)ethan-1-one]
7.68		COc1cccc2c1nc(N)n1nc(Cc3cccc(F)c3C)cc21 [Ex-59, 2-(3-fluoro-2-methylbenzyl)-7-methoxypyrazolo[1,5-c]quinazolin-5-amine]
7.11		COc1cccc2c1nc(N)n1nc(C(=O)N3CCC4(CCNC4)C3)cc21 (stereo not drawn) [Ex-86, (5-amino-7-methoxypyrazolo[1,5-c]quinazolin-2-yl)(2,7-diazaspiro[4.4]nonan-2-yl)methanone]
6.87		COc1cccc2c1nc(N)n1nc(Cc3ccc(N4CCCCC4)cc3)cc21 [Ex-8, 7-methoxy-2-(4-(piperidin-1-yl)benzyl)pyrazolo[1,5-c]quinazolin-5-amine]
8.00		COc1cccc2c1nc(N)n1nc(Cc3ccc(F)cc3F)cc21 [Ex-6, 2-(2,4-difluorobenzyl)-7-methoxypyrazolo[1,5-c]quinazolin-5-amine]
6.91		Nc1nc2ccc(F)cc2c2cc(Cc3cccnc3N3CCOCC3)nn12 [Ex-107, 9-fluoro-2-((2-morpholinopyridin-3-yl)methyl)pyrazolo[1,5-c]quinazolin-5-amine]
6.61		COc1cccc2c1nc(N)n1nc(C(=O)N3CCC4(CCNC4)CC3)cc21 [Ex-84, (5-amino-7-methoxypyrazolo[1,5-c]quinazolin-2-yl)(2,8-diazaspiro[4.5]decan-8-yl)methanone]
	8.05	COc1cccc2c1nc(N)n1nc(Cc3ccccc3)cc21 [Ex-4, 2-benzyl-7-methoxypyrazolo[1,5-c]quinazolin-5-amine]
8.05		COc1cccc2c1nc(N)n1nc(Cc3ccccc3CN3CC(O)C3)cc21 [Ex-28, 1-(2-((5-amino-7-methoxypyrazolo[1,5-c]quinazolin-2-yl)methyl)benzyl)azetidin-3-ol]
7.72		COc1cccc2c1nc(N)n1nc(-c3nnc(-c4cccc5cccnc45)o3)cc21 [Ex-100, 7-methoxy-2-(5-(quinolin-8-yl)-1,3,4-oxadiazol-2-yl)pyrazolo[1,5-c]quinazolin-5-amine]
9.52		COc1cccc2c1nc(N)n1nc(C(=O)N3CCN(c4ccc(F)cc4F)CC3)cc21 [Ex-78, (5-amino-7-methoxypyrazolo[1,5-c]quinazolin-2-yl)(4-(2,4-difluorophenyl)piperazin-1-yl)methanone]
8.15		COc1cccc(Cc2cc3c4cccc(OC)c4nc(N)n3n2)c1 [Ex-34, 7-methoxy-2-(3-methoxybenzyl)pyrazolo[1,5-c]quinazolin-5-amine]
7.70		COc1cccc2c1nc(N)n1nc(C(=O)N3CCN(C(=O)OC(C)(C)C)CC3)cc21 [Ex-75, tert-butyl 4-(5-amino-7-methoxypyrazolo[1,5-c]quinazoline-2-carbonyl)piperazine-1-carboxylate]
